US20100144793A1, “NOVEL COMPOUNDS FOR THE TREATMENT OF DISEASES ASSOCIATED WITH AMYLOID OR AMYLOID-LIKE PROTEINS” (AC IMMUNE SA, priority 2006, published 2010)
Where a name gives a salt, the structure may show the parent alone. Read-outs that look alike come from different tables or passages of the source.

Assays:
Aβ1-42 = molecular target: T1, Aβ1-42 (Homo sapiens, UniProt P05067); assay: Thioflavin T spectrofluorescence assay: inhibition of Aβ1-42 aggregation; type: biochemical
T1 construct: Aβ1-42 lyophilized powder (Bachem) was reconstituted in hexafluoroisopropanol (HFIP) to 1 mM; purchased Bachem
T1 sequence (P05067 672-713 limits assumed): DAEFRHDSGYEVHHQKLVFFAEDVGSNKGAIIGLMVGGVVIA
Experimental: The objective of this example was to evaluate the capacity of the compounds of the invention to inhibit the aggregation of (Aβ)1-42 peptide and to disaggregate pre-aggregated Aβ1-42 using a thioflavin T spectrofluorescence assay.
Aβ1-42 lyophilized powder (Bachem) was reconstituted in hexafluoroisopropanol (HFIP) to 1 mM. The peptide solution was sonicated for 15 min at room temperature, agitated overnight, and aliquots were placed into non-siliconized microcentrifuge tubes. The HFIP was then evaporated under a stream of argon. The resulting peptide film was dried under vacuum for 10 min, tightly sealed and stored at −80° C. until used.
Aβ1-42 peptide film was dissolved in DMSO to reach 400 μM. Assay solution in PBS was prepared in non-siliconized incubation tubes to reach the following concentrations: 330 μM small molecule, 33 μM Aβ1-42, 10 μM thioflavin T (ThT), and 12.8% DMSO. Therefore, the final molar ratio of small molecule to Aβ1-42 was 10:1. A positive control without a small molecule was prepared to measure maximum RFU. A negative control without Aβ1-42 was prepared for each small molecule. 3-aminopyrazole trimer (Trimer) was tested in all assays to ascertain reproducibility between independent experiments. The solutions were then incubated for 24 h at 37° C., and the spectrofluorescence (relative fluorescence units; RFU) read in six replicates in black 384-well assay plates (Perkin-Elmer) on a Perkin-Elmer FluoroCount spectrofluorometer. Inhibition of aggregation is expressed as mean % inhibition±1 standard deviation (SD) according to the following equation: […]

[1] = molecular target: T2, Oregon Green labeled Aβ(1-42) (Homo sapiens, UniProt P05067); assay: FCS-assay with 5 nM Oregon Green labeled Aβ-peptide (disaggregation of preformed aggregates); type: biochemical
T2 construct: DMSO-stock solutions of Oregon Green labeled Aβ(1-42) 1:1 with deionized water
T2 sequence (P05067 672-713 limits assumed): as above
Experimental: In order to analyse the disaggregating properties of the compounds, preformed aggregates were used, which were induced straight before the FCS-measurement by diluting low concentrated (500 nM) DMSO-stock solutions of Oregon Green labeled Aβ(1-42) 1:1 with deionized water. The final concentration of Oregon Green labeled Aβ-peptide was 5 nM in 1×PBS and 3% DMSO.
To improve the reproducibility of the measurements of the concentration dependencies all samples were prepared fourfold.

[2] = Table 3, 10:1 small molecule to Aβ1-42 molar ratio, 24 h at 37° C., mean ± SD of two independent experiments, read-out: % Inhibition
[3] = 10:1 small molecule to Aβ1-42 molar ratio
[4] = read-out: Percentage of the “number of peaks” value compared to the control reaction without added ligand
[5] = read-out: Percentage of the “peaks × height“ value compared to the control reaction without added ligand
[6] = Table 4, 10:1 small molecule to Aβ1-42 molar ratio, 24 h at 37° C., mean ± SD of 2 independent experiments, read-out: % inhibition

c1cc(NCCNc2cc[nH]n2)n[nH]1 [Compound 1b, N^1N^2-bis(1H-Pyrazol-3-yl)ethane-1,2-diamine bishydrochloride]
inhibition at 330 µM (Aβ1-42; [2]): 9.7 ± 0.3%

Cc1ccc(-c2cc(NCc3cccc(CNc4cc(-c5ccc(C)cc5)[nH]n4)n3)n[nH]2)cc1 [Compound 1aq, N,N′-(Pyridine-2,6-diylbis(methylene))bis(5-p-tolyl-1H-pyrazol-3-amine) trishydrochloride]
inhibition at 330 µM (Aβ1-42; 24 h): 82.9 ± 2.7%

Fc1ccc(-c2cc(NCCNc3cc(-c4ccc(F)cc4)[nH]n3)n[nH]2)cc1 [Compound 1ak, N^1,N^2-bis(5-(4-Fluorophenyl)-1H-pyrazol-3-yl)ethane-1,2-diamine bishydrochloride]
inhibition of Aβ1-42 aggregation, in words (Aβ1-42; [3]): strong inhibition of aggregation
inhibition at 330 µM (Aβ1-42; 24 h): 74 ± 5.9%
remaining activity at 0.1 µM [1, 4]: 57.4%
remaining activity at 0.2 µM [1, 4]: 51%
remaining activity at 0.1 µM [1, 5]: 43.3%
remaining activity at 0.2 µM [1, 5]: 44.8%

COc1ccc(-c2c(NCCNc3n[nH]c(C)c3-c3ccc(OC)cc3)n[nH]c2C)cc1 [Compound 1t, N^1,N^2-bis(5-Methyl-4-methoxyphenyl)-1H-pyrazol-3-yl)ethane-1,2-diamine dihydrochloride]
inhibition at 330 µM (Aβ1-42; 24 h): 31.4 ± 0.5%

c1ccc(-c2cc(NCCNc3cc(-c4ccccn4)[nH]n3)n[nH]2)nc1 [Compound 1al, N^1,N^2-bis(5-(Pyridin-2-yl)-1H-pyrazol-3-yl)ethane-1,2-diamine tetra-hydrochloride]
inhibition of Aβ1-42 aggregation, in words (Aβ1-42; [3]): strong inhibition of aggregation
inhibition at 330 µM (Aβ1-42; 24 h): 90.1 ± 4.7%
remaining activity at 0.2 µM [1, 4]: 57.9%
remaining activity at 0.2 µM [1, 5]: 48%

c1csc(-c2cc(NCCNc3cc(-c4cccs4)[nH]n3)n[nH]2)c1 (as salt: hydrochloride) [Compound 1h, N^1,N^2-bis(5-(2-Thienyl)-1H-pyrazol-3-yl)ethane-1,2-diamine bishydrochloride]
melting point: 147 °C

c1coc(-c2cc(NCCNc3cc(-c4ccco4)[nH]n3)n[nH]2)c1 (as salt: hydrochloride) [Compound 1m, N^1,N^2-bis(5-(2-Furyl)-1H-pyrazol-3-yl)ethane-1,2-diamine bishydrochloride]
melting point: 214 to 216 °C

FC(F)(F)c1cccc2[nH]nc(NCCNc3n[nH]c4cccc(C(F)(F)F)c34)c12 [Compound 1ai, N,N′-bis(4-(Trifluoromethyl)-1H-indazol-3-yl)ethane-1,2-diamine bishydrochloride]
inhibition of Aβ1-42 aggregation, in words (Aβ1-42; [3]): strong inhibition of aggregation
inhibition at 330 µM (Aβ1-42; 24 h): 50.4 ± 8.4%

Cc1cc(NCCNc2cc(C)[nH]n2)n[nH]1 [Compound 1a, N^1,N^2-bis(5-Methyl-1H-pyrazol-3-yl)ethane-1,2-diamine bishydrochloride]
inhibition at 330 µM (Aβ1-42; 24 h): 37.6 ± 0.7%

Cc1cc(NC(=O)C(=O)Nc2cc(C)[nH]n2)n[nH]1 [Ampox, reference compound]
inhibition at 330 µM (Aβ1-42; 24 h): 38.7 ± 5.2%

c1coc(-c2cc(NCCNc3cc(-c4ccco4)[nH]n3)n[nH]2)c1 [Compound 1m, N^1,N^2-bis(5-(2-Furyl)-1H-pyrazol-3-yl)ethane-1,2-diamine bishydrochloride]
inhibition of Aβ1-42 aggregation, in words (Aβ1-42; [3]): strong inhibition of aggregation
inhibition at 330 µM (Aβ1-42; 24 h): 52.9 ± 2.7%

Cc1cc(NCC(=O)Nc2cc(C)[nH]n2)n[nH]1 [Compound 1w, N-(5-Methyl-1H-pyrazol-3-yl)-2-(5-methyl-1H-pyrazol-3-ylamino)acetamide]
inhibition at 330 µM (Aβ1-42; [2]): 7.3 ± 10.4%

Clc1ccc(-c2c[nH]nc2NCCNc2n[nH]cc2-c2ccc(Cl)cc2)cc1 [Compound 1s, N^1,N^2-bis(4-(4-Chlorophenyl)-1H-pyrazol-3-yl)ethane-1,2-diamine bishydrochloride]
inhibition at 330 µM (Aβ1-42; 24 h): 66.6 ± 4.1%

Cc1[nH]nc(NCCNc2n[nH]c(C)c2-c2ccccc2)c1-c1ccccc1 [Compound 1c, N^1,N^2-bis(5-Methyl-4-phenyl-1H-pyrazol-3-yl)ethane-1,2-diamine bishydrochloride]
inhibition at 330 µM (Aβ1-42; 24 h): 52.7 ± 1.3%

c1c(NCCNc2cc(C3CC3)[nH]n2)n[nH]c1C1CC1 (as salt: hydrochloride) [Compound 1i, N^1,N^2-bis(5-Cyclopropyl-1H-pyrazol-3-yl)ethane-1,2-diamine bishydrochloride]
melting point: 205 to 206 °C

CC(C)(C)c1cc(NCCNc2cc(C(C)(C)C)[nH]n2)n[nH]1 [Compound 1j, N^1,N^2-bis(5-tert-Butyl-1H-pyrazol-3-yl)ethane-1,2-diamine bishydrochloride]
inhibition at 330 µM (Aβ1-42; 24 h): 11.5 ± 2.9%

c1ccc(-c2cc(NCCNc3cc(-c4ccccc4)[nH]n3)n[nH]2)cc1 [Compound 1e, N^1,N^2-bis(5-Phenyl)-1H-pyrazol-3-yl)ethane-1,2-diamine bishydrochloride]
inhibition of Aβ1-42 aggregation, in words (Aβ1-42; [3]): strong inhibition of aggregation
inhibition at 330 µM (Aβ1-42; [6]): 82.5 ± 5.8%

Clc1ccc(-c2cc(NCCNc3cc(-c4cccs4)[nH]n3)n[nH]2)cc1 (as salt: hydrochloride) [Compound 1ah, N-(5-(4-Chlorophenyl)-1H-pyrazol-3-yl)-N′-(5-(thiophen-2-yl)-1H-pyrazol-3-yl)ethane-1,2-diamine bishydrochloride]
melting point: 139 °C

Cc1cc(NCCNc2n[nH]c(C)c2-c2ccc(Cl)cc2)n[nH]1 [Compound 1k, N,N′-(4-(4-Chlorophenyl)-5-methyl-1H-pyrazol-3-yl-N′-(5-methyl-1H-pyrazol-3-yl)ethane-1,2-diaminebishydrochloride]
inhibition at 330 µM (Aβ1-42; Table 5, 10:1 small molecule to Aβ1-42 molar ratio, 24 h at 37° C., mean ± SD of two independent experiments, read-out: % inhibition): 40.4 ± 13%

Cc1ccc(-c2cc(NCC(C)(C)CNc3cc(-c4ccc(C)cc4)[nH]n3)n[nH]2)cc1 [Compound 1an, dihydrochloride]
inhibition of Aβ1-42 aggregation, in words (Aβ1-42; [3]): strong inhibition of aggregation
inhibition at 330 µM (Aβ1-42; 24 h): 55.9 ± 7.4%

c1c(NCCNc2cc(C3CC3)[nH]n2)n[nH]c1C1CC1 [Compound 1i, N^1,N^2-bis(5-Cyclopropyl-1H-pyrazol-3-yl)ethane-1,2-diamine bishydrochloride]
inhibition at 330 µM (Aβ1-42; 24 h): 53.6 ± 27%

c1[nH]nc(NCCNc2n[nH]cc2C2CC2)c1C1CC1 [Compound 1v, N^1,N^2-bis(4-Cyclopropyl-1H-pyrazol-3-yl)ethane-1,2-diamine bishydrochloride]
inhibition at 330 µM (Aβ1-42; 24 h): 15.3 ± 2.9%

c1csc(-c2c[nH]nc2NCCNc2n[nH]cc2-c2cccs2)c1 [Compound 1r, N^1,N^2-bis(4-(Thiophen-2-yl)-1H-pyrazol-3-yl)ethane-1,2-diamine bishydrochloride]
inhibition at 330 µM (Aβ1-42; 24 h): 49.5 ± 0.8%

Cc1ccc(-c2cc(NCc3cccc(CNc4cc(-c5ccc(C)cc5)[nH]n4)c3)n[nH]2)cc1 [Compound 1ao, N,N′-(1,3-Phenylenebis(methylene))bis(5-p-tolyl-1H-pyrazol-3-amine) dihydrochloride]
inhibition at 330 µM (Aβ1-42; 24 h): 72.9 ± 0.7%

CN(C)c1ccc(-c2cc(NCCNc3cc(-c4ccc(N(C)C)cc4)[nH]n3)n[nH]2)cc1.Cl.Cl [Compound 1aj, N^1,N^2-bis(5-(4-(Dimethylamino)phenyl)-1H-pyrazol-3-yl)ethane-1,2-diamine bishydrochloride]
inhibition of Aβ1-42 aggregation, in words (Aβ1-42; [3]): strong inhibition of aggregation
inhibition at 330 µM (Aβ1-42; [6]): 79.1 ± 4.8%
remaining activity at 0.2 µM ([1]; 200 nM compound, 5 nM labeled Aβ-peptide, read-out: Percentage of the “number of peaks” value compared to the control reaction without added ligand): 57.4%
remaining activity at 0.2 µM ([1]; 200 nM compound, 5 nM labeled Aβ-peptide, read-out: Percentage of the “peaks × height“ value compared to the control reaction without added ligand): 61.9%

Cc1ccc(-c2cc(NCc3ccc(CNc4cc(-c5ccc(C)cc5)[nH]n4)cc3)n[nH]2)cc1 [Compound 1ap, N,N′-(1,4-Phenylenebis(methylene))bis(5-p-tolyl-1H-pyrazol-3-amine) dihydrochloride]
inhibition of Aβ1-42 aggregation, in words (Aβ1-42; [3]): strong inhibition of aggregation
inhibition at 330 µM (Aβ1-42; 24 h): 66.2 ± 1.6%

c1csc(-c2cc(NCCNc3cc(-c4cccs4)[nH]n3)n[nH]2)c1 [Compound 1h, N^1,N^2-bis(5-(2-Thienyl)-1H-pyrazol-3-yl)ethane-1,2-diamine bishydrochloride]
inhibition at 330 µM (Aβ1-42; 24 h): 69.9 ± 1.4%

c1ccc(Cc2cc(NCCNc3cc(Cc4ccccc4)[nH]n3)n[nH]2)cc1 [Compound 1l, N^1,N^2-bis(5-Benzyl-1H-pyrazol-3-yl)ethane-1,2-diamine dihydrochloride]
inhibition at 330 µM (Aβ1-42; 24 h): 57.5 ± 7.6%

c1ccc(Cc2c[nH]nc2NCCNc2n[nH]cc2Cc2ccccc2)cc1 [Compound 1q, N^1,N^2-bis(4-Benzyl-1H-pyrazol-3-yl)ethane-1,2-diamine dihydrochloride]
inhibition at 330 µM (Aβ1-42; 24 h): 59.2 ± 4.9%
